Measurements: US4268685A, “Salicylamide esters and related pharmaceutical composition” (Neopharmed S.p.A., priority 1979, dated 1981)
Each block holds one molecule with its values, some of them ahead of it.

Experiments:
[1] = system: prostaglandine synthetases; assay: forming of prostaglandine synthetases
[2] = in vivo, po
[3] = in vivo
[4] = solubility of the product; type: physicochemical
[5] = hot plate test; conditions: in vivo
Source text: The pharmacological tests, as carried out with the compound of example 3, show: […]

[6] = plasma content (bioavailability) after administration; conditions: in vivo

Tmax [2]: 1 h
Structure (SMILES): CC(C)Cc1ccc(C(C)C(=O)O)cc1 (centres unmarked) [Ibuprofen, 2-(4-isobutyl-phenyl)-propionic acid]
effect on the forming of prostaglandine synthetases [1]: opposite behaviour

Structure (SMILES): COc1ccc2c(c1)c(CC(=O)O)c(C)n2C(=O)c1ccc(Cl)cc1 [indomethacin]
effect on the forming of prostaglandine synthetases [1]: opposite behaviour

presence of salicylamide in the plasma [3]: not present in the plasma
Structure (SMILES): NC(=O)c1ccccc1O [salicylamide]

solubility in acetone ([4]; acetone): soluble
solubility in alcohol ([4]; alcohol): little soluble
solubility in benzene ([4]; benzene): little soluble
solubility in chloroform ([4]; chloroform): little soluble
solubility in pyridine ([4]; pyridine): soluble
solubility in water ([4]; water): insoluble
Structure (SMILES): COc1ccc2cc([C@H](C)C(=O)Oc3ccccc3C(N)=O)ccc2c1 [Example 1, Ester of salicylamide with 2-(6'-methoxy-2'-naphtyl)-propionic acid]

time for which plasma content remains essentially unchanged ([3]; po): more than 7 hours
Structure (SMILES): CC(C)Cc1ccc(C(C)C(=O)Oc2ccccc2C(N)=O)cc1 (centres unmarked) [Example 3, Ester of salicylamide with 2-(4-isobutyl-phenyl)-propionic acid]
activity at the hot plate test [5]: high activity
effect on the forming of prostaglandine synthetases [1]: enhanced
time extended action [6]: time extended action
